The text below walks through data of US20140205583A1, “USE OF PLP WITH PEG-rMETase IN VIVO FOR ENHANCED EFFICACY” (AntiCancer, Inc., priority 2003, published 2014).

The conditions of data set [1]: literature comparison; cited from earlier work.
Data set [2] deals with plasma anti-rMETase specific antibody. Kind of data set: Plasma anti-rMETase antibody titer by sandwich ELISA after immunization with FCA. The data set is classed as in vivo, BALB/c male mice. The settings on record: mice immunized i.p. with 200 μg in FCA; figures in parentheses = numbers of mice. On the procedure: BALB/c male mice were grouped randomly at 5 per group. Each mouse received three i.p. injections of 0.2 ml (200 μg) naked or PEG-rMETase emulsified in Freund's complete adjuvant (FCA) at weekly intervals. Two weeks following the last injection, a booster injection of the rMETase or PEG-rMETase was given to each mouse. Blood samples were collected two weeks after the booster injection, and plasma was separated and stored at −80° C.
Plasma anti-rMETase antibody was measured using a sandwich ELISA technique. 100 μl 200 μg/ml rMETase in 0.1 M carbonate coating buffer, pH 9.5, was added to each well of a 96-well microplate and incubated at 4° C. overnight. The plate was washed three times with PBS washing buffer, pH 7.4, containing 0.05% Tween-20, and blocked for 2 hours at room temperature with 200 μl of PBS assay buffer, pH 7.4, containing 10% FBS. After washing three times, 100 μl of 10-fold serial dilutions of the plasma samples in PBS assay buffer were added to appropriate wells and incubated for 2 hours at room temperature, followed by washing. 100 μl optimally diluted goat anti-mouse IgG and IgM subtypes conjugated with horseradish peroxidase (SIGMA, St. Louis, Mo., USA) were added to each well. The plate was incubated for 1 hour at room temperature and washed three times. 100 μl substrate solution containing O-phenylenediamine dihydrochloride (OPD) and hydrogen peroxide (SIGMA, St. Louis, Mo., USA) were added to each well, followed by 30 min incubation at room temperature. 50 μl 2N sulfuric acid were added to each well to stop the color reaction. The absorbance of each well was measured at 492 nm. The antibody titer was determined as the highest plasma dilution at which the extinction at 492 nm generated in the well of the immune plasma exceeded twice the extinction generated in those wells with negative control plasma.
IgG and IgM anti-rMETase antibody titers of the plasma of the mice immunized with naked or indicated PEGylated rMETase in the presence of FCA were determined using ELISA as described in the Materials and Methods. […]
A general note: ELISA stands for enzyme-linked immunosorbent assay.

Data set [3] concerns plasma methionine. Kind of data set: Plasma methionine depletion following intravenous injection of naked and PEGylated rMETase, with or without PLP pump. In kind it is in vivo, Athymic nude (nu/nu) mice. The settings on record: for Max. Period of MET depletion below 5 μM, PLP+: with PLP supplementation from s.c. mini-osmotic pump; for Period of plasma methionine depletion below 5 μM relative to naked rMETase: fold longer than naked rMETase; for PLP dependence (ratio of plasma methionine PLP− versus PLP+): ratios at various time points, FIG. 8. On the procedure: The methionine level in the plasma was measured by pre-column derivitization, followed by HPLC separation (Jones, B. N., and Gilligan, J. P., J. Chromatogr. (1983) 266:471-482). Briefly, 10 μl of plasma sample or methionine standard was precipitated with 30 μl of acetonitrile, followed by centrifugation at 10,000 rpm for 5 minutes. 10 μl of the supernatant was mixed with 5 μl of a fluoraldehyde derivative reagent, o-phthaldialdehyde, for 1 minute at room temperature, followed by addition of 150 μl of 0.1 M sodium acetate, pH 7.0. 20 μl of the reaction mixture was loaded on a reversed-phase Supelcosil™ LC-18DB column (25 cm×[…], particle size 5 μm (Supelco, Bellefonte, Pa., USA). The amino acid derivatives were separated by using a gradient elution of 40-60% solution B (Methanol) in solution A (tetrahydrofuran/methanol/0.1M sodium acetate. pH 7.2; 5/95/900) at a flow rate of 1.5 ml/minute. A fluorescence spectrophotometer was used for detection: excitation at 350 nm and emission at 450 nm. The plasma methionine was identified by the retention time of a methionine standard solution and quantitated according to a methionine standard curve.
(§1) Athymic nude (nu/nu) mice aged 4 weeks (20-25 g) were used for the study with 4 mice per group. Osmotic mini-pumps filled with 250 μl PLP (0.5 g/ml) were implanted subcutaneously. Twenty-four hours after pump implantation, 80 units of native rMETase or PEG-rMETase in 0.5 ml PBS, pH 7.4, were injected via the tail vein in mice with or without PLP pumps. 400 μl of blood was collected from the retroorbital plexus of each animal using heparinized capillary tubes. Blood was collected prior to injection, and 1, 2, 4, 8, 24, 48, 72, 96 and 120 hours post injection. The plasma was separated and stored in small aliquots at −80° C. The plasma enzyme activity, methionine concentration and PLP level in the plasma, collected at the different time points, were measured as described above.
(§2) 80 U of naked or PEGylated rMETase were injected i.v. in each mouse with or without PLP supplementation. Blood samples were collected at different time points and measured for enzyme activity and methionine concentration as described in the Materials and Methods. Plasma half-life was calculated from the plasma enzyme concentration-time profiles (FIG. 4). Maximum period of methionine depletion below 5 μM is calculated from the plasma methionine levels in FIGS. 5 and 7.
The mice were injected i.v. with 80 U of naked or the indicated PEGylated rMETase. Blood samples were collected at different time points and measured for plasma methionine concentration as described above.
In these experiments, 80 U of naked or PEGylated rMETase was injected intravenously in animals with and without PLP supplementation from implanted mini-osmotic pumps. Blood samples were taken at different time points and measured for plasma methionine concentration. […] The plasma methionine levels depleted by the three PEGylated rMETase conjugates were maintained below 2 μM for 48 hours and below 4 μM for 72 hours in case of PEG/rMETase 120 with PLP supplementation (Table 3). At 120 hours after injection of PEG/rMETase, the plasma methionine level depleted by PEG/rMETase 30, PEG/rMETase 60 and PEG/rMETase 120 still remained at 40%, 57% and 22% of normal baseline, respectively (Table 3).

Data set [4] in a line: Pharmacokinetics: plasma enzyme activity following intravenous injection of naked and PEGylated rMETase in mice. In kind it is in vivo, Athymic nude (nu/nu) mice. The settings on record: for Plasma half-life in mice: 80 U i.v. per mouse, calculated from plasma enzyme activity-time profiles; for Plasma enzyme activity detectable until: 80 units per mouse i.v. On the procedure: rMETase activity was determined from α-ketobutyrate produced from L-methionine according to the method of Tanaka, H., et al., Biochemistry (1977) 16:100-106, with slight modification. 0.5 ml of sample diluted in 100 mM potassium phosphate buffer pH 8.0, containing 0.01% DTT, 1 mM EDTA Nae, 10 μM PLP and 0.05% Tween 80, was mixed with 0.5 ml of substrate solution containing 100 mM potassium phosphate buffer, pH 8.0, containing 25 mM L-methionine and 10 μM PLP in a glass test tube. The reaction mixture was vortexed immediately and incubated at 37° C. without shaking for precisely 10 minutes. The reaction was stopped by adding 0.5 ml of 50% TCA. The suspension was centrifuged at 13,000 rpm for 2 minutes. The supernatant (0.5 ml) was collected in a glass tube containing 1 ml 1 M acetate buffer, pH 5.0. Then, 0.4 ml MBTH solution containing 0.1% 3-methyl-2-benzothiazolinonehydrazone dihydrochloride monohydrate (Wako Pure Chemical, Osaka, Japan) was added to the tube, mixed well and incubated at 50° C. for 30 minutes. The absorbance of the reaction mixture was measured at 320 nm. The assay was carried out in triplicate. ΔE was calculated by subtracting the average absorbance of blanks from the average absorbance of the reaction mixture. The enzyme activity was calculated by the following equation: Activity (U/ml)=0.548 (1.07+2.2ΔE) ΔE. One unit of enzyme is defined as the amount of enzyme which produced 1 μM of α-ketobutyrate per minute at an infinite concentration of L-methionine.
as §1
The mice were injected intravenously with 80 U naked or the indicated PEGylated rMETase. Blood samples were collected at different time points and measured for plasma enzyme activity as described above.
as §2

Data set [5] has as its system cancer cell lines. The settings on record: wide variety of cancer cell lines, in vitro; cited from earlier work.
The mark [6] stands for this setting: 80 U i.v., with PLP supplementation.
Setting [7] is: 80 U i.v., without PLP supplementation.

For “PEGylated rMETase with M-SPA-PEG: Literature rMETase PEGylated with M-SPA-PEG, comparison for half-life”, in data set [1], the Plasma half-life was 0.667 h.
Regarding “PEG/rMETase 30: rMETase conjugated with MEGC-PEG-5000 at molar ratio PEG/rMETase of 30/1”, the “Plasma anti-rMETase specific IgM antibody titer” value in data set [2] is 10^−3 (5). Also, in data set [3] (80 U i.v.), the “Max. Period of MET depletion below 5 μM, PLP+” value (from here on “Max. Period … PLP+”) was found to be 48 h. The “Plasma methionine level at 120 hours after injection, of normal baseline” value (“Plasma methionine level at 120 hours” for short) in data set [3] (setting [6]) is on record as 40%. Further, in data set [3] (setting [7]), the “Max. Period of MET depletion below 5 μM, PLP−” value (“Max. Period … PLP−” for short) was 8 h and the “Period of plasma methionine depletion below 5 μM relative to naked rMETase” value is given as 2 fold. Moreover, the “Plasma half-life in mice” value in data set [4] was 12 h.
In the case of “L-methionine α-deamino-γ-mercaptomethane lyase [Naked rMETase]”, the “Plasma methionine level reached within 1 hour” value in data set [3] (80 U i.v., baseline 40 μM, without PLP supplementation) is reported as “less than 5 μM”. For the same substance, the “Max. Period … PLP+” value in data set [3] (80 U i.v.) came out at 4 h. In addition, the “Max. Period … PLP−” value in data set [3] (setting [7]) is 4 h. The “IC50 in cancer cell lines compared to non-neoplastic cells” value in data set [5] is “several-fold less”.
On to “PEG/rMETase 60: rMETase conjugated with MEGC-PEG-5000 at molar ratio PEG/rMETase of 60/1”, for which the “Plasma anti-rMETase specific IgM antibody titer” value in data set [2] is 10^−3 (5). Besides, the “Max. Period … PLP+” value in data set [3] (80 U i.v.) is 48 h. The “Plasma methionine level at 120 hours” value in data set [3] (setting [6]) was found to be 57%. Also, in data set [3] (setting [7]), the “Max. Period … PLP−” value amounted to 24 h and the “Period of plasma methionine depletion below 5 μM relative to naked rMETase” value was 6 fold. Moreover, the “PLP dependence (ratio of plasma methionine PLP− versus PLP+)” value in data set [3] is given as “lesser PLP dependence than PEG/rMETase 30”. For the same substance, in data set [4], the “Plasma half-life in mice” value is 18 h and the “Plasma enzyme activity detectable until” value was found to be 72 h.
As to “PEG/rMETase 120: rMETase conjugated with MEGC-PEG-5000 at molar ratio PEG/rMETase of 120/1”, the “Plasma anti-rMETase specific IgM antibody titer” value in data set [2] is recorded as 10^−3 (5). In data set [3] (setting [6]), the “Plasma methionine level maintained for 72 hours” value was “below 4 μM” and the “Plasma methionine level at 120 hours” value worked out at 22%. Besides, in data set [3] (80 U i.v.), the “Max. Period … PLP+” value came out at 72 h. Also, in data set [3] (setting [7]), the “Max. Period … PLP−” value amounted to 48 h and the “Period of plasma methionine depletion below 5 μM relative to naked rMETase” value is recorded as 12 fold. Further, the “PLP dependence (ratio of plasma methionine PLP− versus PLP+)” value in data set [3] is on record as “lesser PLP dependence than PEG/rMETase 30”. Also, in data set [4], the “Plasma half-life in mice” value is 38 h and the “Plasma enzyme activity detectable until” value came to 72 h.
